The results in this text go back to publication PMC5085689, “Cinnamide Derivatives as Mammalian Arginase Inhibitors: Synthesis, Biological Evaluation and Molecular Docking” (International Journal of Molecular Sciences, 2016).

Several values for one entry are separate records, joined by “and”; a condition that tells them apart may be missing. Equal values may be shown once. Read-outs that look alike come from different tables or passages of the source.

For assay [1], the target named is T1, purified liver bovine arginase (b-ARG I) (Bos taurus, UniProt Q2KJ64).
T1 construct: commercially-available purified bovine arginase (b-ARG I) instead of animal tissue; purchased MP Biomedicals; host or cells: bovine liver (enzyme purified from tissue)
T1 sequence (Q2KJ64 1-322): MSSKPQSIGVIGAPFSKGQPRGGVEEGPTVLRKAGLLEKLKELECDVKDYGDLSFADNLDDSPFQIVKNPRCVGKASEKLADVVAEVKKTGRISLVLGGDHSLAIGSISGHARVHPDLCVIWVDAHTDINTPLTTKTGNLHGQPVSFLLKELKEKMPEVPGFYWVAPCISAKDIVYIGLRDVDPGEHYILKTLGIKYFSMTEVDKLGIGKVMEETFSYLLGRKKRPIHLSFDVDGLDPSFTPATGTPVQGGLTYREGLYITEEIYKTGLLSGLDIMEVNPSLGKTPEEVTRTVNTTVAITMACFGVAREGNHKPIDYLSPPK
Nature of the assay: In vitro colorimetric microassay of arginase inhibition on purified bovine liver arginase.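 On all read-outs here: urea formed from L-arginine detected colorimetrically with alpha-isonitrosopropiophenone at 550 nm after 60 min at 37 °C, inhibition relative to solvent controls taken as 100% arginase activity.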 Type of assay: biochemical. Conditions: for inhibition at 100 µM: read-out: b-ARG I Inhibition (%) (100 μM).

The target in another assay is T2, b-ARG I (Bos taurus, UniProt Q2KJ64).
T2 construct: commercially-available purified bovine arginase (b-ARG I) instead of animal tissue; purchased MP Biomedicals; host or cells: bovine liver (enzyme purified from tissue)
T2 sequence (Q2KJ64 1-322): T1 sequence (Q2KJ64 1-322)
Nature of the assay: Enzyme kinetic study and determination of Ki values on b-ARG I. Type of assay: biochemical, bovine. Conditions: for Type of Inhibition: Lineweaver–Burk, Dixon and Cornish–Bowden plots.

Assay [2] deals with T3, recombinant human arginase I (h-ARG I) (Homo sapiens, UniProt P05089).
T3 construct: purchased Interchim BXC572/n P0408M10
T3 sequence (P05089 1-322): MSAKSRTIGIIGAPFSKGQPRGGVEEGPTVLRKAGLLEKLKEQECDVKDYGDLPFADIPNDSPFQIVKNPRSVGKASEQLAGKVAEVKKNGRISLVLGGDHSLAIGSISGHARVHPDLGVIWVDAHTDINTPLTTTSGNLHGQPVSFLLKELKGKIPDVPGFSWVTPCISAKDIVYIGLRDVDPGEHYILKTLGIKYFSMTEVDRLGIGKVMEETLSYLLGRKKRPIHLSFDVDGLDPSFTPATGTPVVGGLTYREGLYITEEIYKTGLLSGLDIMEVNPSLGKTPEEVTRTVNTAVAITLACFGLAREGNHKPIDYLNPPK
Nature of the assay: In vitro colorimetric microassay of arginase inhibition on recombinant human arginase I. The format is biochemical.

The mark [3] stands for this setting: 100 μM final concentration, three separate in-duplicate experiments.
Where [4] appears, read: purified bovine liver arginase, three separate in-triplicate experiments, read-out: IC50 (b-ARG I).
Where [5] appears, read: b-ARG I, Cheng–Prusoff equation, [S] = 14.3 mM L-arginine, Km = 55.5 ± 10.5 µM, read-out: Ki.

`COc1cc(/C=C/C(=O)NCCc2ccc(O)cc2)ccc1O` [Compound 7, (E)-N-(4-Hydroxyphenethyl)-3-methoxy-4-hydroxycinnamide]: the inhibition at 100 µM in assay [1] (setting [3]) is 24 ± 2%. Turning to `O=C(O)/C=C/c1ccc(O)c(O)c1` [Caffeic acid, reference compound], the IC50 in assay [1] worked out at 86.7 ± 8 µM. With `O=C(/C=C/c1ccccc1)NCCc1ccc(O)cc1` [Compound 10, (E)-N-(4-Hydroxyphenethyl)-cinnamide], in assay [1] (setting [3]), the inhibition at 100 µM is 34 ± 3%. On to `COc1cc(/C=C/C(=O)NCCc2ccc(O)c(O)c2)ccc1O` [Compound 12, (E)-N-(3,4-Dihydroxyphenethyl)-3-methoxy-4-hydroxycinnamide], for which the inhibition at 100 µM in assay [1] (setting [3]) was determined as 61 ± 3%. For the same molecule, the IC50 in assay [1] (setting [4]) amounted to 198.7 ± 1.4 µM.

For the molecule `O=C(/C=C/c1ccc(O)c(O)c1)NCCc1ccc(O)cc1` [Compound 6, (E)-N-(2-(4-Hydroxyphenyl)ethyl)-3,4-dihydroxycinnamide], the inhibition at 100 µM in assay [1] (setting [3]) stood at 58 ± 2%. In addition, the IC50 in assay [1] (setting [4]) is 22.1 ± 1.6 µM. With `O=C(/C=C/c1ccccc1)NCCc1ccccc1` [Compound 5, (E)-N-(2-Phenylethyl)cinnamide], the inhibition at 100 µM in assay [1] (setting [3]) came to 34 ± 2%. On to `COc1cc(/C=C/C(=O)NCCc2ccccc2)cc(OC)c1OC` [Compound 4, (E)-N-(2-Phenylethyl)-3,4,5-trimethoxycinnamide], for which the inhibition at 100 µM in assay [1] (setting [3]) came out at 35 ± 2%. The same measure, in the same setting: the figure for `COc1cc(/C=C/C(=O)NCCc2ccccc2)ccc1O` [Compound 2, (E)-N-(2-Phenylethyl)-3-methoxy-4-hydroxycinnamide] is 37 ± 4%. For the molecule `COC(=O)C(Cc1ccc(O)c(O)c1)NC(=O)C=Cc1ccc(O)c(O)c1` (stereo not shown) [Compound 18, 3-(3,4-Dihydroxyphenyl)-2-[3-(3,4-dihydroxyphenyl)-acryloylamino]-propionic acid methyl ester], the inhibition at 100 µM in assay [1] (setting [3]) is 62 ± 1%. Moreover, the IC50 in assay [1] (setting [4]) was 41.9 ± 1.3 µM. Consider `O=C(/C=C/c1ccc(O)c(O)c1)NCCc1ccc(O)c(O)c1` [Compound 11, (E)-N-(3,4-Dihydroxyphenethyl)-3,4-dihydroxycinnamide], for which the inhibition at 100 µM in assay [1] (setting [3]) stood at 62 ± 3%. Moreover, the IC50 in assay [1] (setting [4]) is 115 ± 1.3 µM.

Consider `O=C(/C=C/c1ccc(O)cc1)NCCc1ccc(O)cc1` [Compound 8, (E)-N-(4-Hydroxyphenethyl)-4-hydroxycinnamide], for which, in assay [1] (setting [3]), the inhibition at 100 µM stood at 40 ± 2%. In the case of `O=C(/C=C/c1ccc(O)cc1)NCCc1ccc(O)c(O)c1` [Compound 13, (E)-N-(3,4-Dihydroxyphenethyl)-4-hydroxycinnamide], in assay [1] (setting [3]), the inhibition at 100 µM amounted to 54 ± 1%. Moreover, the IC50 in assay [1] (setting [4]) was found to be 170.4 ± 1.7 µM. In the case of `COc1cc(/C=C/C(=O)NCCc2ccc(O)c(O)c2)cc(OC)c1OC` [Compound 14, (E)-N-(3,4-Dihydroxyphenethyl)-3,4,5-trimethoxycinnamide], in assay [1] (setting [3]), the inhibition at 100 µM was found to be 53 ± 1%. For the same molecule, in assay [1] (setting [4]), the IC50 was found to be 193.6 ± 1.4 µM.

On to `O=C(/C=C/c1ccccc1)NCCc1ccc(O)c(O)c1` [Compound 15, (E)-N-(3,4-Dihydroxyphenethyl)cinnamide], for which the inhibition at 100 µM in assay [1] (setting [3]) came to 68 ± 3%. The IC50 in assay [1] (setting [4]) was found to be 39.3 ± 1.4 µM. The matching figures for `COC(=O)[C@H](CS)NC(=O)/C=C/c1ccc(O)c(O)c1` [Compound 19, (E)-N-(3,4-Dihydroxycinnamoyl)-L-cysteine methyl ester]: 67 ± 1% and 37 ± 1.3 µM. Take `COc1cc(/C=C/C(=O)NCCc2ccc(O)cc2)cc(OC)c1OC` [Compound 9, (E)-N-(4-Hydroxyphenethyl)-3,4,5-trimethoxycinnamide]: in assay [1] (setting [3]), the inhibition at 100 µM amounted to 30 ± 2%. Regarding `O=C(/C=C/c1ccc(O)cc1)NCCc1ccccc1` [Compound 3, (E)-N-(2-Phenylethyl)-4-hydroxycinnamide], the inhibition at 100 µM in assay [1] (setting [3]) worked out at 31 ± 4%.

With `O=C(NCCc1ccc(O)cc1)c1ccc(O)c(O)c1` [Compound 17, N-(4-Hydoxyphenethyl)-3,4-dihydroxybenzamide], the inhibition at 100 µM in assay [1] (setting [3]) was 52 ± 2%. For the same molecule, the IC50 in assay [1] (setting [4]) turned out to be 175.3 ± 1.5 µM.

Regarding `O=C(/C=C/c1ccc(O)c(O)c1)O[C@@H]1C[C@](O)(C(=O)O)C[C@@H](O)[C@H]1O` [CGA, chlorogenic acid, reference compound], the IC50 in assay [1] (IC50 (b-ARG I), purified bovine liver arginase, three separate in-triplicate experiments) was < 50 µM and 10.6 µM. For the same molecule, the inhibition at 100 µM in assay [1] was 71 ± 1%. This molecule yielded a Ki at b-ARG I of 8.4 ± 1.2 µM. In addition, at b-ARG I (b-ARG I), the “Type of Inhibition” value was “competitive”. Take `N=C(NO)NCC[C@H](N)C(=O)O` [nor-NOHA, N^ω-hydroxy-nor-L-arginine, reference compound]: in assay [1] (setting [3]), the inhibition at 100 µM came out at 99 ± 1%. Moreover, the IC50 in assay [1] (setting [4]) is 1.7 ± 0.2 µM. Besides, the Ki at b-ARG I (setting [5]) turned out to be 1.3 ± 0.1 µM. At b-ARG I (b-ARG I), the “Type of Inhibition” value is “competitive”.

With `O=C(/C=C/c1ccc(O)c(O)c1)Nc1ccc(O)cc1` [Compound 16, (E)-N-(4-Hydroxyphenyl)-3,4-dihydroxycinnamide], the inhibition at 100 µM in assay [1] (setting [3]) came out at 59 ± 1%. Moreover, the IC50 in assay [1] (setting [4]) stood at 35.6 ± 1.3 µM. Consider `O=C(/C=C/c1ccc(O)c(O)c1)NCCc1ccccc1` [Compound 1, (E)-N-(2-Phenylethyl)-3,4-dihydroxycinnamide], for which the inhibition at 100 µM in assay [1] (setting [3]) was 64 ± 2%. The IC50 in assay [1] (setting [4]) turned out to be 6.9 ± 1.3 µM; in assay [2] it was 60.3 ± 7.8 µM. The inhibition constant Ki on b-ARG I (setting [5]) was found to be 5.5 ± 1 µM. For the same molecule, the “Type of Inhibition” value at b-ARG I (b-ARG I, listed as CAPA) is given as “competitive inhibitor”; at b-ARG I (b-ARG I, listed as CAPA (1)) it was “competitive”.

What is called inhibition is the share of the control response that was lost under treatment. What is called IC50 is the concentration at which inhibition is half-maximal. For orientation: Ki means the dissociation constant of the complex between target and ligand, obtained from inhibition or displacement.
